These results are taken from ChEMBL document CHEMBL1133572, “Protease inhibitors: current status and future prospects” (J Med Chem, 2000).

Usually inhibition in vivo stands for the share of the control response that was lost under treatment. Read a high inhibition in vivo as a strong effect. As usually defined, the half-life is the time in which the quantity being followed falls by half. Low readings indicate rapid decline, high ones slow decline. A word on the pIC50: it is −log10 of the IC50, conventionally taken in molar units. Lower therefore signals a high IC50. As usually defined, the Inhibition is the drop in the measured response relative to a control, in per cent. Read a high Inhibition as a strong effect. In general, Tmax refers to the time from dosing to the highest level. By Cmax is commonly meant the peak of the concentration-time curve. For orientation: pKi means the Ki on a negative log10 scale, so that one unit is a factor of ten.

SMILES strings stand for the structures. pIC50, pKi: −log10 of the molar value. Non-standard residues stand in square brackets, D forms with d. Residues, ends and D or L forms follow the SMILES beside them. *: point of attachment. Cbz = O=C(OCc1ccccc1)*; Dap = NC[C@H](N)C(=O)O

The subject of series [1] is Cricetinae gen. sp. Briefly: Inhibition against at the dose of 30 mg/kg after 5 hr. In kind it is functional, Cricetulus griseus.
Series [2] concerns the target Neutrophil elastase (Homo sapiens) (UniProt P08246). Briefly: Inhibition of elastase.
The nature of series [3]: Half life. In kind it is ADME.
For series [4], the system named is Cricetinae gen. sp. Description: Inhibition against at the dose of 30 mg/kg after 30 minutes. The series is classed as functional, Cricetulus griseus. The following applies: 0.5 h.
Series [5] can be described thus: Inhibitory concentration against several aspartic proteases of Candida albicans.
The target in series [6] is T1, Cathepsin D (Homo sapiens, UniProt P07339). Briefly: Inhibitory concentration against cathepsin D.
T1 sequence (P07339 65-162 limits assumed): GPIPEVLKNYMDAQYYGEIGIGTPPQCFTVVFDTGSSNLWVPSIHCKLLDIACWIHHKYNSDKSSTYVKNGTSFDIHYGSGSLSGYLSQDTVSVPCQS
T1 sequence (P07339 169-412 limits assumed): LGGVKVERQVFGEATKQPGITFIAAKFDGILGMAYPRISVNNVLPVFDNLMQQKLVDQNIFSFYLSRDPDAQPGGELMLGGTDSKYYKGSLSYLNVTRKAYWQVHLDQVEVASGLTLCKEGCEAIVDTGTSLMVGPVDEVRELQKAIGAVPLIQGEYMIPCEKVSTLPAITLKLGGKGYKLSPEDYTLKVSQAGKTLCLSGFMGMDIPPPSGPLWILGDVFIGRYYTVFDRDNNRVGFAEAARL
Series [7] concerns the target T2, Renin (Homo sapiens, UniProt P00797).
T2 sequence (P00797 whole entry): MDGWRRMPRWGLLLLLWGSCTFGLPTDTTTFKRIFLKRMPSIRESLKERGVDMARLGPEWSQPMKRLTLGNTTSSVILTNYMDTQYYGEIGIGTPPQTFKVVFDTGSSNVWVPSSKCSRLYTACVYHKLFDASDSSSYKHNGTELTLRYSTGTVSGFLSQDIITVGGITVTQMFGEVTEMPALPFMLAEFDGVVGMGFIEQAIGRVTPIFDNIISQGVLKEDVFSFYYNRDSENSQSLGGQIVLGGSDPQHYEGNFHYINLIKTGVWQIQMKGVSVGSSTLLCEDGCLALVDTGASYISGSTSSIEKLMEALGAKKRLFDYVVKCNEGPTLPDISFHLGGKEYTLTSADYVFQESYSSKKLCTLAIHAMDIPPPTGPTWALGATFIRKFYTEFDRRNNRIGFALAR
Description: Inhibitory concentration against renin.

Series [8] deals with Cricetinae gen. sp. Briefly: Inhibitory concentration against elastase. In kind it is functional, Cricetulus griseus. The following applies: read-out: ID50 (the source's name).
Series [9] is described as follows: The inhibition against liver metastases at 100 ug/mL. In kind it is ADME, tissue-based.
A further series deals with Pepsin A (Sus scrofa, UniProt P00791). Description: Inhibitory concentration against porcine pepsin.
Chain of Pepsin A (P00791 whole entry): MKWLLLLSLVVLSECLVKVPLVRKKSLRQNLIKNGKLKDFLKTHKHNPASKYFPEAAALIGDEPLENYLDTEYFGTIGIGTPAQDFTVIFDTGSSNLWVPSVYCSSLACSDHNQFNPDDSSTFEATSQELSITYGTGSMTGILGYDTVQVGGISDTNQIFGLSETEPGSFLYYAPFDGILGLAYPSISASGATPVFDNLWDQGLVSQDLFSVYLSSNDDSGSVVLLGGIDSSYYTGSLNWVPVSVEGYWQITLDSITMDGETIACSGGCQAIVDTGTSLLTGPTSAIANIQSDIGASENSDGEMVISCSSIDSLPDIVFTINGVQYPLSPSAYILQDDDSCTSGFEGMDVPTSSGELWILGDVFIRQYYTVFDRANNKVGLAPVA
The nature of series [10]: oral bioavailability in cynomolgus monkeys. In kind it is ADME, organism-based, Macaca fascicularis. Particulars: cynomolgus monkey, in vivo, read-out: Bioavailabiility.
The target in series [11] is T1, Cathepsin D. Briefly: Inhibitory concentration against human cathepsin D.
A short description of series [12]: oral bioavailability in marmosets. In kind it is ADME, organism-based. Particulars: callithrix, in vivo, read-out: Bioavailabiility.
The nature of series [13]: Half life in dogs. In kind it is ADME, organism-based, Canis lupus familiaris. The following applies: dog, in vivo.
The nature of series [14]: Oral bioavailability in dog. In kind it is ADME, organism-based, Canis lupus familiaris. The following applies: in vivo.
Series [15] concerns the target T2, Renin.
Series [16] in a line: Tmax value of the compound. The series is classed as ADME.
Series [17] can be described thus: Cmax value at the period of 800 mg po for every 8 hr. The series is classed as ADME, organism-based. Also noted: dose 800 mg, route oral. Particulars: in vivo.
The target of the next series is T3, Neprilysin (Rattus norvegicus, UniProt P07861).
T3 sequence (P07861 whole entry): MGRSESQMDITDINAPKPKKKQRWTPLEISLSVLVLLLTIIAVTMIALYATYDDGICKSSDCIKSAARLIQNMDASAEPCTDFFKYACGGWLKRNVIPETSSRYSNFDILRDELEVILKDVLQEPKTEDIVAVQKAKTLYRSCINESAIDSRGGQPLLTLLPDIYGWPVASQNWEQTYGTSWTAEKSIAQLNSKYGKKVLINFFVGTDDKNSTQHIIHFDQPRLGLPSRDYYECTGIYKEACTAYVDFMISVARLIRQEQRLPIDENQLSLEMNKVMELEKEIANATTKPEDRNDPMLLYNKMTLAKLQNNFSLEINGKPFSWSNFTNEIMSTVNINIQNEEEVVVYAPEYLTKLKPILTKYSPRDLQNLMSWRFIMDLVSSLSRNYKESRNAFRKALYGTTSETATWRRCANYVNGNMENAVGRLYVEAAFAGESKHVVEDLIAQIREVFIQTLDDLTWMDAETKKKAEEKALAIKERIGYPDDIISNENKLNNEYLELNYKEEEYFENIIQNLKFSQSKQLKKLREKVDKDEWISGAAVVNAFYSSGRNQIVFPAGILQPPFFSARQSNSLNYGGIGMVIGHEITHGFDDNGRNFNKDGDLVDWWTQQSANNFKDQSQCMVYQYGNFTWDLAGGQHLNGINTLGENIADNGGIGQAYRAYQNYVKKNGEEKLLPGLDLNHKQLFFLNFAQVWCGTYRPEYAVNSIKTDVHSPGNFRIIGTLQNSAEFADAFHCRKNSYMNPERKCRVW
Briefly: Inhibitory activity against neutral Endopeptidase.

Series [18] can be described thus: oral bioavailability in dogs and monkeys. The series is classed as ADME, organism-based, Canis lupus familiaris. The following applies: dog, in vivo, read-out: Bioavailabiility.
Series [19] in a line: Inhibitory concentration against SAP.
The target in series [20] is T2, Renin. Description: Inhibitory concentration against renin..
Series [21] is described as follows: Plasma half life at the dose of 5 mg/kg iv. In kind it is ADME, organism-based. Also noted: dose 5 mg/kg.
A short description of series [22]: Oral bioavailability in rats at the dose of 10 mg/kg po. The series is classed as ADME, organism-based. Particulars: rat, in vivo, read-out: Bioavailabiility.
A short description of series [23]: Cmax value in the period of 0-24 hr after dosing. In kind it is ADME, organism-based. Particulars: in vivo.
The next series concerns Enterovirus. Description: Inhibitory activity against the different replication of HRV serotypes and related piocornaviruses A21 and B3, enterovirus 70 and echo virus 11. The series is classed as functional, organism-based.

Chain of Neutrophil elastase (Homo sapiens) (P08246 whole entry): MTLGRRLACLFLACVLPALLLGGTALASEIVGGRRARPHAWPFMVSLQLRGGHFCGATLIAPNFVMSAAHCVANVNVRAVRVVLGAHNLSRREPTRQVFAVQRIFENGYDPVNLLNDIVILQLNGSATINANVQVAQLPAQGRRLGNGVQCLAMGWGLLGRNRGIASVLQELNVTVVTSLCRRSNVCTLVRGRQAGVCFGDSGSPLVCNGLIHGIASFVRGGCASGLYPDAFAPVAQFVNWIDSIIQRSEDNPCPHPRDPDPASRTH

As for `CC[C@@H](NC(=O)N1C(=O)[C@](C)(CC)[C@@H]1Oc1ccc(CC(=O)O)cc1)c1ccccc1`, the inhibition in vivo at 30 mg/kg is 51% with Cricetinae gen. sp. [1] and 98% in the series on Cricetinae gen. sp. [4]. Further, in series [2], the K obs / 1 was determined as 91000 M⁻¹ s⁻¹. In [3], the half-life was 5 h.

With `CCCC[C@@H](C(=O)N[C@@H](CC1CCCCC1)[C@@H](O)C[C@H](C(=O)NCCC)C(C)C)N1CCN(C(=O)N2CCN(C)CC2)[C@H](Cc2ccccc2)C1=O`, the negative-log IC50 (pIC50) was 8.85 in [5], 6.11 against Cathepsin D [6] and 8.15 against Renin [7].

In the case of `CC(C)(C)C(=O)Oc1ccc(S(=O)(=O)Nc2ccccc2C(=O)NCC(=O)O)cc1`, the ED50 with Cricetinae gen. sp. [8] came to 0.082 mg/kg.

In the case of `CC(C)C[C@H](NC(=O)[C@H]1O[C@@H]1C(=O)O)C(=O)NCCCCN=C(N)N` [E-64], the Inhibition in [9] is 90%.

Take `CNC1CCN(C(=O)C[C@@H](Cc2ccccc2)C(=O)N[C@@H](CSC)C(=O)N[C@@H](CC2CCCCC2)[C@@H](O)C(=O)OC(C)C)CC1`: the pIC50 against Pepsin A was 5.68; against Cathepsin D [11], 6.26; against Renin [15] it was 8.40. Besides, the bioavailability in series [10] is more than 27%; in series [12], 59%; in series [14], 60%. For the same compound, the half-life in series [13] is 2.4 h.

Take `CC(C)(C)NC(=O)[C@@H]1CN(Cc2cccnc2)CCN1C[C@@H](O)C[C@@H](Cc1ccccc1)C(=O)N[C@H]1c2ccccc2C[C@H]1O.O`: the bioavailability in series [14] (read-out: Bioavailabiility) amounted to 90%. In series [16], the time to peak (Tmax) was 1 h. Moreover, in [17], the Cmax amounted to 12 µM.

Take `C[C@H](NC(=O)[C@@H](CS)Cc1ccc2c(c1)OCO2)C(=O)O`: on Neprilysin, the pKi is 8.25.

Regarding `CN1CCN=C1c1cccc(Oc2nc(Oc3cc(C(=N)N)ccc3O)c(F)c(N(C)CC(=O)O)c2F)c1` [FIDEXABAN], the bioavailability in series [18] is 20%.

As to `CCCC[C@@H](C(=O)N[C@@H](CC1CCCCC1)[C@@H](O)C[C@H](C(=O)NCCN(C)C)C(C)C)N1CCN(C(=O)N2CCN(C)CC2)[C@H](Cc2ccccc2)C1=O`, the pIC50 in series [19] is 8.21; against Cathepsin D [6] it was 4.24; against Renin [20] it was less than 7.00.

In turn, `CC(C)c1nc(CN(C)C(=O)N[C@H](C(=O)N[C@@H](Cc2ccccc2)C[C@H](O)[C@H](Cc2ccccc2)NC(=O)OCc2cncs2)C(C)C)cs1` [RITONAVIR] showed a half-life in series [21] of 1.2 h. For the same compound, the bioavailability in [22] was 78%. Also, the maximum concentration (Cmax) in series [23] came out at 2.6 µM. For the same compound, the time to peak (Tmax) in [16] was 2 h.

`CC(=O)NC[C@@H](C=O)NC(=O)[C@H](Cc1ccccc1)NC(=O)[C@H](CC(C)C)NC(=O)OCc1ccccc1` (Cbz-Leu-Phe-[Dap](Ac)-aldehyde): in the series with Enterovirus, the pKi was 8.22.
